Experiments:
Assay in all cases: relative viability (nuclei count vs DMSO), 5 days (fraction); higher = more cells survive
YM155 + Dasatinib = compound: COCC[n+]1c2c(n(Cc3cnccn3)c1C)C(=O)c1ccccc1C2=O [YM155] + Cc1nc(Nc2ncc(C(=O)Nc3c(C)cccc3Cl)s2)cc(N2CCN(CCO)CC2)n1 [Dasatinib] (partner 0.075 µM)
Outline: (§1)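 A single step with final 0.05% Triton X-100, 1% formaldehyde and 1 ug/ml Hoechst fixed the cells and stained nuclei 5 days after treatment. Lung cancer cell lines in 1536-well plates had been treated by pin tool the day after seeding with one drug alone or a fixed anchor-drug dose plus five library-drug doses (not always all listed) in √10 steps, and nuclei were counted on 4× images. Relative viability is the ratio of nuclei in treated wells to nuclei in vehicle wells, taken as the median of duplicate plates.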

YM155 + Luminespib = compound: COCC[n+]1c2c(n(Cc3cnccn3)c1C)C(=O)c1ccccc1C2=O [YM155] + CCNC(=O)c1noc(-c2cc(C(C)C)c(O)cc2O)c1-c1ccc(CN2CCOCC2)cc1 [Luminespib] (partner 0.01 µM)
Outline: as §1

YM155 + Navitoclax = compound: COCC[n+]1c2c(n(Cc3cnccn3)c1C)C(=O)c1ccccc1C2=O [YM155] + CC1(C)CCC(c2ccc(Cl)cc2)=C(CN2CCN(c3ccc(C(=O)NS(=O)(=O)c4ccc(N[C@H](CCN5CCOCC5)CSc5ccccc5)c(S(=O)(=O)C(F)(F)F)c4)cc3)CC2)C1 [Navitoclax] (partner 0.5 µM)
Outline: as §1

Quizartinib + Crizotinib = compound: CC(C)(C)c1cc(NC(=O)Nc2ccc(-c3cn4c(n3)sc3cc(OCCN5CCOCC5)ccc34)cc2)no1 [Quizartinib] + C[C@@H](Oc1cc(-c2cnn(C3CCNCC3)c2)cnc1N)c1c(Cl)ccc(F)c1Cl [Crizotinib] (partner 1 µM)
Outline: as §1

| Cell Line | relative viability (YM155 + Dasatinib; first compound 0.002 µM) | relative viability (YM155 + Dasatinib; first compound 0.006325 µM) | relative viability (YM155 + Dasatinib; first compound 0.02 µM) | relative viability (YM155 + Dasatinib; first compound 0.06325 µM) | relative viability (YM155 + Luminespib; first compound 0.002 µM) | relative viability (YM155 + Luminespib; first compound 0.006325 µM) | relative viability (YM155 + Luminespib; first compound 0.02 µM) | relative viability (YM155 + Luminespib; first compound 0.06325 µM) | relative viability (YM155 + Navitoclax; first compound 0.002 µM) | relative viability (YM155 + Navitoclax; first compound 0.006325 µM) | relative viability (YM155 + Navitoclax; first compound 0.02 µM) | relative viability (YM155 + Navitoclax; first compound 0.06325 µM) | relative viability (Quizartinib + Crizotinib; first compound 0.001 µM) | relative viability (Quizartinib + Crizotinib; first compound 0.003162 µM) | relative viability (Quizartinib + Crizotinib; first compound 0.01 µM) | relative viability (Quizartinib + Crizotinib; first compound 0.03162 µM) | relative viability (Quizartinib + Crizotinib; first compound 0.1 µM) |
| --- | --- | --- | --- | --- | --- | --- | --- | --- | --- | --- | --- | --- | --- | --- | --- | --- | --- |
| HOP-62 | 0.673 | 0.64 | 0.706 | 0.646 | 0.918 | 0.907 | 0.938 | 0.906 | 0.97 | 0.969 | 0.979 | 1.11 | 0.881 | 0.98 | 1.11 | 1.11 | 0.86 |
| IA-LM |  |  |  |  |  |  |  |  | 0.723 | 0.757 | 0.811 | 0.585 | 0.858 | 0.912 | 0.726 |  | 0.623 |
| LC-2-ad | 0.529 | 0.547 | 0.674 | 0.649 | 0.942 | 0.959 | 0.869 | 0.331 | 0.414 | 0.479 | 0.456 | 0.509 | 0.437 | 0.514 | 0.583 | 0.469 | 0.362 |
| LCLC-97TM1 | 0.761 | 0.954 | 0.739 | 0.835 | 0.838 | 0.816 | 0.717 | 0.71 | 0.319 | 0.394 | 0.391 | 0.376 |  | 0.27 | 0.463 | 0.297 | 0.417 |
| LCLC-103H | 0.446 | 0.456 | 0.474 | 0.531 | 0.927 | 0.832 | 0.846 | 1.04 |  |  |  |  | 0.784 | 1.16 | 0.992 | 1.05 | 1.02 |
| LK-2 | 0.275 | 0.271 | 0.266 | 0.294 | 0.249 | 0.165 | 0.21 | 0.185 | 0.776 | 0.855 | 0.85 | 1.09 | 0.186 | 0.224 | 0.229 | 0.238 | 0.24 |
| LOU-NH91 | 0.539 | 0.62 | 0.569 | 0.599 | 0.299 | 0.36 | 0.315 | 0.375 | 0.748 | 0.677 | 0.725 | 0.716 | 0.747 | 0.715 | 0.771 | 0.729 | 0.79 |
| LU99A | 0.562 | 0.442 | 0.697 | 0.518 | 0.233 | 0.263 | 0.275 | 0.219 | 0.753 | 0.729 | 0.756 | 0.677 | 0.49 | 0.507 | 0.656 | 0.534 | 0.507 |
| LXF-289 | 0.233 | 0.231 | 0.194 | 0.224 | 0.651 | 0.683 | 0.675 | 0.504 | 0.94 | 0.949 | 0.957 | 0.87 | 0.743 | 0.787 | 0.821 | 0.8 | 0.726 |
| NCI-H23 | 0.634 | 0.692 | 0.785 | 0.601 | 0.209 | 0.206 | 0.187 | 0.142 | 0.727 | 0.879 | 0.967 | 0.269 |  | 0.478 | 0.514 | 0.483 | 0.486 |
